Results as given in US20230364047A1, “USE OF ESTER GROUP-[…] PR[…] IN PREPARATION OF MEDICINE FOR TREATING DRY EYE SYNDROME” (CHANGCHUN GENESCIENCE PHARMACEUTICAL CO., LTD., priority 2020, published 2023).
Marks after values point to notes of the source that are not given here.

How the values were obtained:
[1] = test system: dry eye syndrome caused by castration of male rabbits; assay: Histopathology examination of harderian gland and meibomian gland in castrated male rabbits; format: in vivo, Japanese big-ear white rabbit; conditions: HE sections, in words
Experimental: (§1) 5, 2014-Oct. […] Body weight was measured on the first day and the last day of the quarantine period. • 7 Grouping and Identifying Method for Experimental Animals • 7.1 Identifying method for animals • 7.1.1 Quarantine period: fed in separate cages, tag hung on each cage, and no marking of animals. • 7.1.2 Administration observation period: marked by staining with saturated picric acid solution, and 5 rabbits in each group were marked in the following ways, respectively: head, back, tail, head and back, and white. • 7.2 Grouping of experimental animals: after the quarantine period was finished, 5 rabbits were randomly selected according to the body weight and used in the normal control group, and the rest rabbits were used in the modeling group. […] 5, 2014-Aug. 11, 2014 • 9.3 Date of grouping: Aug. 12, 2014, Sep. 15, 2014 • 9.4 Date of modeling: Aug. 12, 2014 • 9.5 Administration time: Sep. 15, 2014 • 9.6 Animal sacrifice time: Oct. 27, 2014 • 9.2 Duration of administration: two consecutive weeks from Sep. 15, 2014 to Sep. […]

[2] = test system: dry eye syndrome caused by castration of male rabbits; assay: Corneal fluorescence staining (PI) score in castrated male rabbits; format: in vivo, Japanese big-ear white rabbit; conditions: score 0-4, x ± s, n=5
Experimental: as §1

[3] = Body weight and general state of castrated male rabbits during and after topical eye administration; conditions: x ± s, n=5
Experimental: (§2) 5, 2014-Oct. […] Body weight was measured on the first day and the last day of the quarantine period. • 7 Grouping and Identifying Method for Experimental Animals • 7.1 Identifying method for animals • 7.1.1 Quarantine period: fed in separate cages, tag hung on each cage, and no marking of animals. • 7.1.2 Administration observation period: marked by staining with saturated picric acid solution, and 5 rabbits in each group were marked in the following ways, respectively: head, back, tail, head and back, and white. • 7.2 Grouping of experimental animals: after the quarantine period was finished, 5 rabbits were randomly selected according to the body weight and used in the normal control group, and the rest rabbits were used in the modeling group. […] 5, 2014-Aug. 11, 2014 • 9.3 Date of grouping: Aug. 12, 2014, Sep. 15, 2014 • 9.4 Date of modeling: Aug. 12, 2014 • 9.5 Administration time: Sep. 15, 2014 • 9.6 Animal sacrifice time: Oct. 27, 2014 • 9.2 Duration of administration: two consecutive weeks from Sep. 15, 2014 to Sep. […] An aseptic towel was spread out, testicles at two sides were sequentially squeezed into the scrotum from abdominal cavity and clenched to prevent them from sliding, a small opening was cut on the scrotum with a sterilized blade, the testicles were squeezed out by force, the spermatic vein and vas deferens were ligated, the testicles and epididymis were cut out, the scrotum skin was sutured, and iodine tincture was coated locally to prevent infection. • 11.2 Administration method: administration was started on day 35 after the operation, at a prescribed dose for 14 consecutive days. • 11.3 Detection indexes: for each group, basal tear secretion (Schirmer I test), corneal fluorescence staining (PI) and tear film break-up time (BUT) were detected before the modeling and on days 0, 7, and 14 after the administration by performing surface anesthesia. • 11.3.1 Basal tear secretion (Schirmer I test): the 5 mm forepart of a qualitative filter paper (35 mm×6 mm) was reversely folded and placed in the lower eyelid bitamporal conjunctival sac, and the tear infiltration length (including the reversely-folded segment) of the test paper after 5 min was detected and recorded. • 11.3.2 Scoring criteria for corneal fluorescence staining (PI): 1% fluorescein sodium was applied to both eyes of a rabbit without subsequent rinsing, and a slit-lamp microscope was used for observation.

[4] = test system: dry eye syndrome caused by castration of male rabbits; assay: Basal tear secretion (Schirmer I test) in castrated male rabbits; format: in vivo, Japanese big-ear white rabbit
Experimental: as §2

[5] = topical to the eyes for 14 days
[6] = castrated male rabbits, topical to the eyes, Schirmer I 5 min, x ± s, n=5

## CCC(=O)O[C@H]1CC[C@H]2[C@@H]3CCC4=CC(=O)CC[C@]4(C)[C@H]3CC[C@]12C [Positive 2, testosterone propionate]
[1]
  Histopathology of harderian gland and meibomian gland compared with the model group: marked ameliorating
[2]; [5]
  Corneal staining score, Day 28 after drug withdrawal: 3.0 ± 1.22
[2]; topical to the eyes
  Corneal staining score, Day 7 of administration: 2.8 ± 0.22
  Corneal staining score, Day 14 of administration: 2.2 ± 0.57*^Δ▴
[3]; [5]
  Weight of rabbits, Day 7 after drug withdrawal: 3.0 ± 1.21 kg
  Weight of rabbits, Day 14 after drug withdrawal: 3.3 ± 1.31 kg
  Weight of rabbits, Day 21 after drug withdrawal: 3.6 ± 1.07 kg
  Weight of rabbits, Day 28 after drug withdrawal: 4.0 ± 1.20 kg
[3]; topical to the eyes
  Weight of rabbits, Day 7 of administration: 2.4 ± 1.10 kg
  Weight of rabbits, Day 14 of administration: 2.6 ± 1.05 kg
[4]; castrated male rabbits, topical to the eyes for 14 days, Schirmer I 5 min, x ± s, n=5
  Tear secretion, Day 28 after drug withdrawal: 12.2 ± 3.48 mm
[4]; [6]
  Tear secretion, Day 7 of administration: 12.7 ± 2.84 mm
  Tear secretion, Day 14 of administration: 14.8 ± 3.17*^Δ▴ mm
[4]; castrated rabbits, compared with the model group and the solvent group (P<0.05)
  Tear secretion, effect in words: increased markedly
